In the supplement of paper PMC10627819:

Legend:
B. subtilis 168 [1] = experiment: fitness (endpoint OD595 vs no drug) (fraction); higher = more growth
Summary of the method: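 Each well of a 384-well plate received 30 µl of culture at OD595 0.01, or 55 µl for S. pneumoniae. TSB, LB Lennox or CY served as media at 37 °C. OD595 was taken every 30 min for 14 h and corrected by subtracting the first reading. Fitness is the optical density at stationary-phase entry divided by the robust mean of no-drug controls, capped at 1.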

B. subtilis 168 [2] = experiment: Bliss interaction score (quartile over a dose matrix) (fitness difference); higher = more antagonism (negative = synergy)
Summary of the method: (§1)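 Quartiles summarise the Bliss score over technical, biological and donor/recipient replicates, where the score is observed minus expected fitness under a product model. Expected fitness uses single-drug values inferred from combination data. Fitness is OD595 at entry into stationary phase over the plate's robust no-drug mean, capped at 1.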

S. aureus DSM 20231 = experiment: as above
Summary of the method: as §1

S. aureus Newman = experiment: as above
Summary of the method: as §1

S. pneumoniae D39V = experiment: as above
Summary of the method: as §1
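Throughout, for Bliss interaction score (quartile over a dose matrix): first quartile when negative (synergy) and third quartile when positive (antagonism).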

CC[C@H](C)[C@H](N)C1=N[C@H](C(=O)N[C@@H](CC(C)C)C(=O)N[C@H](CCC(=O)O)C(=O)N[C@H](C(=O)N[C@H]2CCCCNC(=O)[C@H](CC(N)=O)NC(=O)[C@@H](CC(=O)O)NC(=O)[C@H](Cc3cnc[nH]3)NC(=O)[C@@H](Cc3ccccc3)NC(=O)[C@H]([C@@H](C)CC)NC(=O)[C@@H](CCCN)NC2=O)[C@@H](C)CC)CS1 [Bacitracin] + COc1cc(Cc2cnc(N)nc2N)cc(OC)c1OC [Trimethoprim]
fitness, B. subtilis 168 [1], one replicate, main component drawn
Conditions | partner 0.1 µg/mL | partner 0.2 µg/mL | partner 0.4 µg/mL | partner 1 µg/mL | partner 2 µg/mL
first compound 37.5 µg/mL | 0.925 | 0.65 | 0.508 | 0.462 | 0.24
first compound 75 µg/mL | 0.898 | 0.715 | 0.532 | 0.441 | 0.235
first compound 150 µg/mL | 0.875 | 0.71 | 0.499 | 0.348 | 0.219

fitness, B. subtilis 168 [1], main component drawn
Conditions | first compound 37.5 µg/mL | first compound 75 µg/mL | first compound 150 µg/mL
partner 0.125 µg/mL | 0.615 | 0.593 | 0.338
partner 0.5 µg/mL | 0.518 | – | –

main component drawn
Conditions | Bliss interaction score
B. subtilis 168 [2] | 0.0858
S. aureus DSM 20231 | 0.013
S. aureus Newman | -0.08
S. pneumoniae D39V | -0.0391

CC[C@H](C)[C@H](N)C1=N[C@H](C(=O)N[C@@H](CC(C)C)C(=O)N[C@H](CCC(=O)O)C(=O)N[C@H](C(=O)N[C@H]2CCCCNC(=O)[C@H](CC(N)=O)NC(=O)[C@@H](CC(=O)O)NC(=O)[C@H](Cc3cnc[nH]3)NC(=O)[C@@H](Cc3ccccc3)NC(=O)[C@H]([C@@H](C)CC)NC(=O)[C@@H](CCCN)NC2=O)[C@@H](C)CC)CS1 [Bacitracin] + C[C@H]1COc2c(N3CCN(C)CC3)c(F)cc3c(=O)c(C(=O)O)cn1c23 [Levofloxacin]
fitness, B. subtilis 168 [1], one replicate, main component drawn
Conditions | first compound 37.5 µg/mL | first compound 75 µg/mL | first compound 150 µg/mL
partner 0.001 µg/mL | 0.94 | 0.969 | 0.728
partner 0.0078 µg/mL | 0.842 | 0.844 | 0.439

fitness, B. subtilis 168 [1], main component drawn
Conditions | partner 0.002 µg/mL | partner 0.0039 µg/mL | partner 0.0312 µg/mL | partner 0.0625 µg/mL | partner 0.125 µg/mL
first compound 37.5 µg/mL | 0.812 | 0.851 | 0.0268 | 0.0345 | 0.0392
first compound 75 µg/mL | 0.851 | 0.818 | 0.0206 | 0.0236 | 0.0256
first compound 150 µg/mL | 0.527 | 0.55 | 0.0178 | 0.0214 | 0.0173

main component drawn
Conditions | Bliss interaction score
B. subtilis 168 [2] | 0.0288
S. aureus DSM 20231 | 0.034
S. aureus Newman | -0.043
S. pneumoniae D39V | -0.072

CC[C@H](C)[C@H](N)C1=N[C@H](C(=O)N[C@@H](CC(C)C)C(=O)N[C@H](CCC(=O)O)C(=O)N[C@H](C(=O)N[C@H]2CCCCNC(=O)[C@H](CC(N)=O)NC(=O)[C@@H](CC(=O)O)NC(=O)[C@H](Cc3cnc[nH]3)NC(=O)[C@@H](Cc3ccccc3)NC(=O)[C@H]([C@@H](C)CC)NC(=O)[C@@H](CCCN)NC2=O)[C@@H](C)CC)CS1 [Bacitracin] + C[C@H]1c2cccc(O)c2C(=O)C2=C(O)[C@]3(O)C(=O)C(C(N)=O)=C(O)[C@@H](N(C)C)[C@@H]3[C@@H](O)[C@@H]21 [Doxycycline]
fitness, B. subtilis 168 [1], main component drawn
Conditions | first compound 37.5 µg/mL | first compound 75 µg/mL | first compound 150 µg/mL
partner 0.02 µg/mL | 0.844 | 0.81 | –
partner 0.04 µg/mL | 0.716 | 0.664 | 0.48
partner 0.08 µg/mL | 0.476 | 0.218 | 0.0689

main component drawn
Conditions | Bliss interaction score
B. subtilis 168 [2] | -0.0867
S. aureus DSM 20231 | 0.101
S. aureus Newman | -0.0186
S. pneumoniae D39V | 0.0989

CC(=O)NC[C@H]1CN(c2ccc(N3CCOCC3)c(F)c2)C(=O)O1 [Linezolid] + CO[C@@H]1[C@@H](OC(N)=O)[C@@H](O)[C@H](Oc2ccc3c(O)c(NC(=O)c4ccc(O)c(CC=C(C)C)c4)c(=O)oc3c2C)OC1(C)C [Novobiocin]
fitness, B. subtilis 168 [1], one replicate
Conditions | partner 0.05 µg/mL | partner 0.1 µg/mL | partner 0.125 µg/mL | partner 0.2 µg/mL | partner 0.25 µg/mL | partner 0.5 µg/mL
first compound 0.0625 µg/mL | 0.871 | 0.925 | – | 0.885 | – | –
first compound 0.125 µg/mL | – | 0.595 | 0.846 | 0.554 | 0.727 | 0.578
first compound 0.25 µg/mL | – | 0.0625 | 0.349 | 0.0582 | 0.218 | 0.242
first compound 0.5 µg/mL | – | – | 0.069 | – | 0.0496 | 0.0575

fitness, B. subtilis 168 [1]
Conditions | first compound 0.125 µg/mL | first compound 0.25 µg/mL | first compound 0.5 µg/mL
partner 0.0125 µg/mL | 0.659 | 0.23 | 0.0324
partner 0.025 µg/mL | 0.574 | 0.182 | 0.0304
partner 0.05 µg/mL | 0.597 | 0.0885 | 0.0285

Conditions | Bliss interaction score
B. subtilis 168 [2] | 0.046
S. aureus DSM 20231 | 0.0424
S. aureus Newman | 0.0413
S. pneumoniae D39V | -0.123

CO[C@H]1/C=C/O[C@@]2(C)Oc3c(C)c(O)c4c(O)c(c(/C=N/N5CCN(C)CC5)c(O)c4c3C2=O)NC(=O)/C(C)=C\C=C\[C@H](C)[C@H](O)[C@@H](C)[C@@H](O)[C@@H](C)[C@H](OC(C)=O)[C@@H]1C [Rifampicin] + COc1cc(Cc2cnc(N)nc2N)cc(OC)c1OC [Trimethoprim]
Conditions | Bliss interaction score
B. subtilis 168 [2] | 0.131
S. aureus DSM 20231 | -0.0578
S. aureus Newman | -0.0473
S. pneumoniae D39V | 0.0931

CO[C@H]1/C=C/O[C@@]2(C)Oc3c(C)c(O)c4c(O)c(c(/C=N/N5CCN(C)CC5)c(O)c4c3C2=O)NC(=O)/C(C)=C\C=C\[C@H](C)[C@H](O)[C@@H](C)[C@@H](O)[C@@H](C)[C@H](OC(C)=O)[C@@H]1C [Rifampicin] + Oc1cc(Cl)ccc1Oc1ccc(Cl)cc1Cl [Triclosan]
Conditions | Bliss interaction score
B. subtilis 168 [2] | 0.0445
S. aureus DSM 20231 | -0.0595
S. aureus Newman | 0.0206
S. pneumoniae D39V | -0.0563

CN[C@@H]1[C@H](O)[C@H](NC)[C@H]2O[C@@]3(O)C(=O)C[C@@H](C)O[C@H]3O[C@@H]2[C@H]1O [Spectinomycin] + CC[C@H]1OC(=O)[C@H](C)C(=O)[C@H](C)[C@@H](O[C@@H]2O[C@H](C)C[C@H](N(C)C)[C@H]2O)[C@](C)(OC)C[C@@H](C)C(=O)[C@H](C)[C@H]2N(CCCCn3cnc(-c4cccnc4)c3)C(=O)O[C@]12C [Telithromycin]
Conditions | Bliss interaction score
B. subtilis 168 [2] | 0.038
S. aureus DSM 20231 | -0.0419
S. aureus Newman | -0.0947
S. pneumoniae D39V | -0.14

CN[C@@H]1[C@H](O)[C@H](NC)[C@H]2O[C@@]3(O)C(=O)C[C@@H](C)O[C@H]3O[C@@H]2[C@H]1O [Spectinomycin] + Cc1cc(NS(=O)(=O)c2ccc(N)cc2)no1 [Sulfamethoxazol]
Conditions | Bliss interaction score
B. subtilis 168 [2] | -0.0406
S. aureus DSM 20231 | -0.0866
S. aureus Newman | 0.0687
S. pneumoniae D39V | -0.0374

CN[C@@H]1[C@H](O)[C@H](NC)[C@H]2O[C@@]3(O)C(=O)C[C@@H](C)O[C@H]3O[C@@H]2[C@H]1O [Spectinomycin] + Oc1cc(Cl)ccc1Oc1ccc(Cl)cc1Cl [Triclosan]
Conditions | Bliss interaction score
B. subtilis 168 [2] | -0.0762
S. aureus DSM 20231 | -0.0648
S. aureus Newman | 0.0626
S. pneumoniae D39V | 0.0557

CN[C@@H]1[C@H](O[C@H]2[C@H](O[C@H]3[C@H](O)[C@@H](O)[C@H](N=C(N)N)[C@@H](O)[C@@H]3N=C(N)N)O[C@@H](C)[C@]2(O)C=O)O[C@@H](CO)[C@H](O)[C@H]1O [Streptomycin] + CC[C@H]1OC(=O)[C@H](C)C(=O)[C@H](C)[C@@H](O[C@@H]2O[C@H](C)C[C@H](N(C)C)[C@H]2O)[C@](C)(OC)C[C@@H](C)C(=O)[C@H](C)[C@H]2N(CCCCn3cnc(-c4cccnc4)c3)C(=O)O[C@]12C [Telithromycin]
Conditions | Bliss interaction score
B. subtilis 168 [2] | 0.0819
S. aureus DSM 20231 | 0.0793
S. aureus Newman | -0.109
S. pneumoniae D39V | -0.0487

CN[C@@H]1[C@H](O[C@H]2[C@H](O[C@H]3[C@H](O)[C@@H](O)[C@H](N=C(N)N)[C@@H](O)[C@@H]3N=C(N)N)O[C@@H](C)[C@]2(O)C=O)O[C@@H](CO)[C@H](O)[C@H]1O [Streptomycin] + Cc1cc(NS(=O)(=O)c2ccc(N)cc2)no1 [Sulfamethoxazol]
Conditions | Bliss interaction score
B. subtilis 168 [2] | -0.126
S. aureus DSM 20231 | 0.0929
S. aureus Newman | 0.0497
S. pneumoniae D39V | 0.0624

CN[C@@H]1[C@H](O[C@H]2[C@H](O[C@H]3[C@H](O)[C@@H](O)[C@H](N=C(N)N)[C@@H](O)[C@@H]3N=C(N)N)O[C@@H](C)[C@]2(O)C=O)O[C@@H](CO)[C@H](O)[C@H]1O [Streptomycin] + Oc1cc(Cl)ccc1Oc1ccc(Cl)cc1Cl [Triclosan]
Conditions | Bliss interaction score
B. subtilis 168 [2] | -0.249
S. aureus DSM 20231 | -0.06
S. aureus Newman | -0.0312
S. pneumoniae D39V | 0.0606
